Results on 12 compounds are retold here after patent publication US20240199676A1, “ANTIVIRAL COMPOUNDS AND METHODS OF MAKING AND USING THE SAME” (Gilead Sciences, Inc., priority 2022, published 2024).

Data set [1] has as its system Respiratory syncytial virus recombinant with luciferase (RSV-Luc5) in NHBE cells. The data set is described as follows: NHBE RSV-Luc5 384-well Assay (EC50 RSVFLUC NHBE-384, Ex. U). Conditions: human respiratory syncytial virus, 72 h, read-out: EC50 RSV FLUC NHBE 384 (per Ex. U). The format is cell-based. The source says: Example U. NHBE RSV-Luc5 384-well Assay (EC50 RSVFLUC NHBE-384)
(§1) Normal Human Bronchial Epithelial (NHBE) cells were purchased from Lonza (Walkersville, MD Cat #CC2540) and maintained in BEGM Bronchial Epithelial Cell Growth Medium BulletKit (Lonza CC-3170).
Cells were thawed, expanded, and were used for experiments at passage 2. Respiratory syncytial virus recombinant with luciferase (RSV-Luc5) (≥1×10^7 Infectious Units/ml (IU/ml) determined by TCID50) was purchased from Microbiologics (Saint Cloud, MN). Viral replication was determined in NHBE cells in the following manner.
(§2) Compounds are prepared in 100% DMSO in 384-well polypropylene plates (Greiner, Monroe, NC, Cat #784201) with 8 compounds per plate in grouped replicates of 4 at 10 serially diluted concentrations (1:3). The serially diluted compounds were transferred to low dead volume Echo plates (Labcyte, Sunnyvale, CA, Cat #LP-0200).
(§3) The test compounds were spotted to 384-well assay plates (Greiner, Monroe, NC, Cat#781091) at 200 nL per well. NHBE cells were harvested and suspended in BEGM Bronchial Epithelial Cell Growth Medium BulletKit and seeded to the pre-spotted assay plates at 5,000 cells per well in 30 μL. RSV-Luc5 virus was diluted in BEGM Bronchial Epithelial Cell Growth Medium BulletKit at 500,000 Infectious Units (IU) per mL and 10 μL per well was added to the assay plates containing cells and compounds, for an MOI of 1. The assay plates were incubated for 3 days at 37° C. and 5% CO2. At the end of incubation, One-Glo reagent (Promega, Madison, WI, Cat #E6120) was prepared. The assay plates and One-Glo reagent were equilibrated to room temperature for at least 15 minutes. 40 μL per well of One-Glo reagent was added and the plates were incubated at room temperature for 15 minutes before reading the luminescence signal on an EnVision multimode plate reader (Perkin Elmer, Waltham, MA). Remdesivir was used as positive control and DMSO was used as negative control. Values were normalized to the positive and negative controls (as 0% and 100% replication, respectively) and data was fitted using non-linear regression analysis by Gilead's dose response tool. The EC50 value for each compound was defined as the concentration reducing the viral replication by 50%.

For data set [2] the test system is unchanged. Description: NHBE RSV-Luc5 384-well Assay (RSV FLUC NHBE 384 V2, Ex. W). The format is cell-based. The note with it: human respiratory syncytial virus, 72 h, read-out: EC50 RSV FLUC NHBE 384 V2 (per Ex. W).
Text: Example W: NHBE RSV-Luc5 384-well Assay (EC50 RSVFLUC NHBE-384)
as §1
Cells were thawed, expanded, and were used for experiments at passage 2. Respiratory syncytial virus recombinant with luciferase (RSV-Luc5) (≥1×10^7 Infectious Units/mL (IU/mL) determined by TCID50) was purchased from Microbiologics (Saint Cloud, MN). Viral replication was determined in NHBE cells in the following manner.
as §2
as §3, with “well using an Echo acoustic dispenser (Labcyte, Sunnyvale, CA).” for “well.”

Data set [3] can be described thus: GI S9 stability (Ex. Z), dog intestinal S9. Format: in vitro ADME. The note with it: pooled intestinal S9 fractions; dog intestinal S9, 1.0 mg/mL protein, 2 μM substrate, pH 7.4; read-out: GIS9 DOG T½ (per Ex. Z). On the procedure: Example Z: GI S9 stability data:
Stock solutions of test compounds in dimethyl sulfoxide (DMSO) having a final concentration of 10 mM were prepared and used in all experiments. Sekisui XenoTech (Kansas City, KS) provided pooled intestinal S9 fractions. All other chemicals were purchased from Sigma-Aldrich (St. Louis, MO) or VWR (West Chester, PA). Internal Standard/Quench (IS/Q) used to stop reactions was 100 nM labetalol in (by volume) methanol (10%) and acetonitrile (90%).
Stability in Intestinal S9 Fractions: Duplicate aliquots of test compound or positive control substrate were added to S9 stock diluted with phosphate buffered saline (137 mM NaCl, 2.7 mM KCl, 10 mM phosphate buffer), pH 7.4, to obtain a protein concentration of 1.0 mg/mL. The metabolic reactions were initiated by the addition of the substrates to the S9 reaction mixture to a final concentration of 2 μM. At 0, 10, 20, 30, 60 and 120 min, 25 μL aliquots of the reaction mixture were transferred to plates containing 225 μl of IS/Q solution. After quenching, the plates were centrifuged at 3000×g for 30 minutes. 150 μL aliquots of each supernatant were dried down then reconstituted with 300 μL water. Aliquots (10 μL) of the prepared samples were analyzed on a Thermo Q-Exactive mass spectrometer as described below.
Liquid Chromatography—Mass Spectrometry: Quantification of test compounds and control substrate was performed by analyte/internal standard peak area ratio (PAR) values measured on a Thermo Q-Exactive mass spectrometer coupled to a Dionex UltiMate 3000 HPLC with a Leap Technologies HTC PAL autosampler. The column used for analysis was a Waters Acquity BEH C18 (1.7 μm particle size, 2.1×50 mm). Mobile phase A consisted of 0.1% (v/v) formic acid in water. Mobile phase B consisted of 0.1% (v/v) formic acid in acetonitrile. Elution of analytes was achieved by a series of linear gradients varying the proportions of A and B. The mass spectrometer was calibrated on a weekly basis and mass tolerance of 5 ppm was used.
Metabolic stabilities in S9 fractions were determined by measuring the rates of disappearance of test compound and positive control substrate.
Data (% of substrate remaining) were plotted on a semi-log scale and fitted using an exponential decline model:
Where Ct—% of substrate remaining at time=t; C0—% of substrate remaining at time=0; t—time; T½—half-life The Half-life (T½) is determined by the following equation: […]
Assuming a first-order reaction, the slope (k) is extrapolated from the aforementioned plotted data.

Turning to `CC(C)CC(=O)OC[C@@]1(C#N)O[C@@H](c2ccc3c(N)ncnn23)[C@H](O)[C@@H]1O` [Compound 3, ((2R,3S,4R,5S)-5-(4-aminopyrrolo[2,1-f][1,2,4]triazin-7-yl)-2-cyano-3,4-dihydroxytetrahydrofuran-2-yl)methyl 3-methylbutanoate], the EC50 in data set [1] worked out at 8.07 µM; in data set [2], 8.55 µM. Moreover, the half-life at 2 μM in data set [3] was found to be 8.28 h.

With `CC1(C)CC(C(=O)OC[C@@]2(C#N)O[C@@H](c3ccc4c(N)ncnn34)[C@H](O)[C@@H]2O)C1` [Compound 17, ((2R,3S,4R,5S)-5-(4-aminopyrrolo[2,1-f][1,2,4]triazin-7-yl)-2-cyano-3,4-dihydroxytetrahydrofuran-2-yl)methyl 3,3-dimethylcyclobutane-1-carboxylate], the EC50 in data set [1] is 8.09 µM; in data set [2], 8.7 µM. Besides, the half-life at 2 μM in data set [3] was 0.8 h.

Consider `CC1(C(=O)OC[C@@]2(C#N)O[C@@H](c3ccc4c(N)ncnn34)[C@H](O)[C@@H]2O)CC1` [Compound 15, ((2R,3S,4R,5S)-5-(4-aminopyrrolo[2,1-f][1,2,4]triazin-7-yl)-2-cyano-3,4-dihydroxytetrahydrofuran-2-yl)methyl 1-methylcyclopropane-1-carboxylate], for which the EC50 in data set [1] worked out at 8.8 µM; in data set [2] it was 8.77 µM. The half-life at 2 μM in data set [3] turned out to be 13.2 h.

With `CC(C)(C)C(=O)OC[C@@]1(C#N)O[C@@H](c2ccc3c(N)ncnn23)[C@H](O)[C@@H]1O` [Compound 10, ((2R,3S,4R,5S)-5-(4-aminopyrrolo[2,1-f][1,2,4]triazin-7-yl)-2-cyano-3,4-dihydroxytetrahydrofuran-2-yl)methyl pivalate], the EC50 in data set [1] turned out to be 8.08 µM; in data set [2] it was 7.87 µM. Further, the half-life at 2 μM in data set [3] was determined as 4.48 h.

For `CC(=O)OC[C@@]1(C#N)O[C@@H](c2ccc3c(N)ncnn23)[C@H](O)[C@@H]1O` [Compound 4, ((2R,3S,4R,5S)-5-(4-aminopyrrolo[2,1-f][1,2,4]triazin-7-yl)-2-cyano-3,4-dihydroxytetrahydrofuran-2-yl)methyl acetate], the EC50 in data set [1] stood at 11 µM; in data set [2], 10.7 µM. In addition, the half-life at 2 μM in data set [3] was 0.683 h.

As to `N#C[C@]1(COC(=O)C2CC2)O[C@@H](c2ccc3c(N)ncnn23)[C@H](O)[C@@H]1O` [Compound 7, ((2R,3S,4R,5S)-5-(4-aminopyrrolo[2,1-f][1,2,4]triazin-7-yl)-2-cyano-3,4-dihydroxytetrahydrofuran-2-yl)methyl cyclopropanecarboxylate], the EC50 worked out at 9.65 µM in data set [1] and 10.7 µM in data set [2]. Besides, the half-life at 2 μM in data set [3] came out at 10.6 h.

Regarding `CC(C)C(=O)OC[C@@]1(C#N)O[C@@H](c2ccc3c(N)ncnn23)[C@H](O)[C@@H]1O` [Compound 1, ((2R,3S,4R,5S)-5-(4-aminopyrrolo[2,1-f][1,2,4]triazin-7-yl)-2-cyano-3,4-dihydroxytetrahydrofuran-2-yl)methyl isobutyrate], the EC50 in data set [1] was determined as 22.1 µM; in data set [2], 14.4 µM. Further, the half-life at 2 μM in data set [3] was found to be 2.02 h.

Consider `N#C[C@]1(COC(=O)c2ccccc2)O[C@@H](c2ccc3c(N)ncnn23)[C@H](O)[C@@H]1O` [Compound 2, ((2R,3S,4R,5S)-5-(4-aminopyrrolo[2,1-f][1,2,4]triazin-7-yl)-2-cyano-3,4-dihydroxytetrahydrofuran-2-yl)methyl benzoate], for which the EC50 was 7.47 µM in data set [1] and 9.31 µM in data set [2]. For the same compound, the half-life at 2 μM in data set [3] came to 13.2 h.

For `CC(C)[C@H](N)C(=O)OC[C@@]1(C#N)O[C@@H](c2ccc3c(N)ncnn23)[C@H](O)[C@@H]1O` [Compound 12, ((2R,3S,4R,5S)-5-(4-aminopyrrolo[2,1-f][1,2,4]triazin-7-yl)-2-cyano-3,4-dihydroxytetrahydrofuran-2-yl)methyl L-valinate], the values for the EC50 in data set [1] and in data set [2] were 11.5 µM and 10.7 µM, respectively. Besides, the half-life at 2 μM in data set [3] stood at 0.0833 h.

Turning to `CC(C)C(=O)OC[C@@]1(C#N)O[C@@H](c2ccc3c(N)ncnn23)[C@H](OC(=O)C(C)C)[C@@H]1OC(=O)C(C)C` [Compound 20, (2R,3S,4S,5S)-5-(4-aminopyrrolo[2,1-f][1,2,4]triazin-7-yl)-2-cyano-2-((isobutyryloxy)methyl)tetrahydrofuran-3,4-diyl bis(2-methylpropanoate)], the EC50 in data set [1] stood at 31.7 µM; in data set [2], 10.4 µM. In addition, in data set [3], the half-life at 2 μM is 0.05 h.

With `N#C[C@]1(COC(=O)CC2CCC2)O[C@@H](c2ccc3c(N)ncnn23)[C@H](O)[C@@H]1O` [Compound 16, ((2R,3S,4R,5S)-5-(4-aminopyrrolo[2,1-f][1,2,4]triazin-7-yl)-2-cyano-3,4-dihydroxytetrahydrofuran-2-yl)methyl 2-cyclobutylacetate], the EC50 is 9.53 µM in data set [1] and 8.36 µM in data set [2]. In addition, the half-life at 2 μM in data set [3] was 1.48 h.

On to `CCC(=O)OC[C@@]1(C#N)O[C@@H](c2ccc3c(N)ncnn23)[C@H](O)[C@@H]1O` [Compound 5, ((2R,3S,4R,5S)-5-(4-aminopyrrolo[2,1-f][1,2,4]triazin-7-yl)-2-cyano-3,4-dihydroxytetrahydrofuran-2-yl)methyl propionate], for which the results for the EC50 in data set [1] and in data set [2] were 8.89 µM and 7.78 µM, respectively. Also, in data set [3], the half-life at 2 μM was 1.9 h.

One may read the EC50 as the concentration at which the effect is half-maximal.
